Experimental data as given in patent US10377770B2 (Novartis AG, priority 2015, dated 2019).

These compounds were tested against C-Raf FL (full length CRAF with Y340E and Y341E activating mutations, co-expressed with h14-3-3 zeta) (Homo sapiens (Human), UniProt P04049, Y340E/Y341E) (assay: In vitro Raf activity determination, AlphaScreen p-MEK readout, c-Raf (C-Raf FL)). Conditions: c-Raf approximately 4 nM, ATP 1 μM, pre-incubation 60 minutes, reaction 1 hour.
Assay type: biochemical
How it was run: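 Phosphorylation of kinase-dead biotinylated MEK1 (~10 nM) by C-Raf FL (~4 nM) read by AlphaScreen luminescence with anti-phospho-MEK1/2 after EDTA stop. ATP was 1 μM, with a 1 h reaction at room temperature. Compounds were pre-incubated with enzyme and substrate for 60 min in Tris/MgCl2 buffer, pH 7.5.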

Row | Compound | IC50
1 | CCN1C[C@H]2COCCN2c2cc(-c3cc(NC(=O)c4ccnc(C(F)(F)F)c4F)ccc3C)cnc2C1=O [Example 499, (S)-N-(3-(6-ethyl-7-oxo-1,2,4a,5,6,7-hexahydro-4H-[1,4]oxazino[4,3-a]pyrido[2,3-f][1,4]diazepin-10-yl)-4-methyplhenyl)-3-fluoro-2-(trifluoromethyl)iso-nicotinamide] | 0.4 nM
2 | Cc1ccc(NC(=O)c2ccnc(C(C)(F)F)c2)cc1-c1cnc2c(c1)N1CCOC[C@H]1[C@@H](C(C)(C)O)C2 [Example 453, 2-(1,1-difluoroethyl)-N-(3-((4aR,5S)-5-(2-hydroxypropan-2-yl)-1,2,4,4a,5,6-hexahydro-[1,4]oxazino[4,3-a][1,5]naphthyridin-9-yl)-4-methylphenyl) isonicotinamide] | 0.7 nM
3 | CO[C@@H]1C[C@@H]2COCCN2c2cc(-c3cc(NC(=O)c4cccc(C(F)(F)F)c4)cnc3C)ccc21 (racemic) [Example 32, (rac)-(trans)-N-(5-(6-methoxy-1,2,4,4a,5,6-hexahydro-[1,4]oxazino[4,3-a]quinolin-9-yl)-6-methylpyridin-3-yl)-3-(trifluoromethyl)benzamide] | 0.023 nM
4 | Cc1ncc(NC(=O)c2cncc(C(F)(F)F)c2)cc1-c1ccc2c(c1)N1CCOC[C@H]1[C@](F)(CF)C2 [Example 470, N-(5-((4aS,5S)-5-fluoro-5-(fluoromethyl)-1,2,4,4a,5,6-hexahydro-[1,4]oxazino[4,3-a]quinolin-9-yl)-6-methylpyridin-3-yl)-5-(trifluorometh-yl)nicotinamide] | 2.2 nM
5 | Cc1ccc(NC(=O)c2ccnc(C(C)(F)F)c2)cc1-c1cnc2c(c1)N1CCOC[C@H]1[C@](C#N)(CF)C2 [Example 518, N-(3-((4aR,5R)-5-cyano-5-(fluoromethyl)-1,2,4,4a,5,6-hexahydro-[1,4]oxazino[4,3-a][1,5]naphthyridin-9-yl)-4-methyphenyl)-2-(1,1-difluoroethyl)iso-nicotinamide] | 0.1 nM
6 | Cc1ccc(NC(=O)c2ccnc(C(C)(F)F)c2)cc1-c1ccc2c(c1)N1CCOC[C@@H]1[C@@H](C(=O)O)C2 (racemic) [Example 100, (rac)-(cis)-9-(5-(2-(1,1-difluoroethyl)isonicotinamido)-2-methylphenyl)-1,2,4,4a,5,6-hexahydro-[1,4]oxazino[4,3-a]quinoline-5-carboxylic Acid] | 0.037 nM
7 | Cc1ccc(NC(=O)c2cnnc(C(F)(F)F)c2)cc1-c1cc(F)c2c(c1)N1CCOC[C@@H]1[C@@](F)(CO)C2 [Example 428, N-(3-((4aR,5R)-5,7-difluoro-5-(hydroxymethyl)-1,2,4,4a,5,6-hexahydro-[1,4]oxazino[4,3-a]quinolin-9-yl)-4-methylphenyl)-6-(trifluoromethyl)pyridazine-4-carboxamide] | 0.1 nM
8 | Cc1ccc(NC(=O)c2ccnc(C(C)(F)F)c2)cc1-c1ccc2c(c1)N1CCOC[C@]1(C)C[C@H]2O (racemic) [Example 27] | 0.017 nM
9 | CCN1C(=O)C(C)(C)c2nncn2-c2cc(-c3cc(NC(=O)c4ccnc(C(F)(F)F)c4)ccc3C)cnc21 [Example 239, N-(3-(6-ethyl-4,4-dimethyl-5-oxo-5,6-dihydro-4H-pyrido[2,3-b][1,2,4]-triazolo[4,3-d][1,4]diazepin-9-yl)-4 methylphenyl)-2-(trifluoromethyl) isonicotinamide] | 4.7 nM
10 | Cc1ncc(NC(=O)c2ccnc(C(C)(F)F)c2)cc1-c1ccc2c(c1)N1CCOC[C@H]1[C@](F)(CF)C2 [Example 467] | 1.9 nM
11 | Cc1ccc(NC(=O)c2ccnc(C(C)(C)F)c2)cc1-c1ccc2c(c1)N1CCOC[C@H]1[C@](F)(CN)C2 [Example 525, N-(3-((4aS,5R)-5-(aminomethyl)-5-fluoro-1,2,4,4a,5,6-hexahydro-[1,4]oxazino[4,3-a]quinolin-9-yl)-4-methylphenyl)-2-(2-fluoropropan-2-yl)isonicotinamide] | 1.5 nM
12 | CCN1C(=O)CC2CCOCCN2c2cc(-c3cc(NC(=O)c4ccnc(C(F)(F)F)c4)ccc3C)cnc21 (stereo not drawn) [Example 314, N-(3-(8-ethyl-7-oxo-1,2,4,5,5a,6,7,8-octahydropyrido[3′, 2′:2,3][1,4]diazepino [1,7-d][1,4]oxazepin-11-yl)-4-methylphenyl)-2-(trifluoromethyl) isonicotinamide] | 0.6 nM
13 | Cc1ccc(NC(=O)c2ccnc(C(F)(F)F)c2)cc1-c1cnc2c(c1)N1CCOC[C@H]1C[C@H]2C [Example 522, N-(4-methyl-3-((4aR,6R)-6-methyl-1,2,4,4a,5,6-hexahydro-[1,4]oxazino[4,3-a][1,5]naph-thyridin-9-yl)phenyl)-2-(trifluoromethyl)iso-nicotinamide] | 0.1 nM
14 | Cc1ccc(NC(=O)c2ccnc(C(C)(F)F)c2)cc1-c1ccc2c(c1)N1CCOC[C@H]1[C@](F)(CF)C2 [Example 473] | 1.5 nM
15 | Cc1ccc(NC(=O)c2ccnc(C(C)(F)F)c2)cc1-c1cnc2c(c1)N1CCOC[C@@H]1[C@H](CO)C2 [Example 495, 2-(1,1-difluoroethyl)-N-(3-((4aS,5R)-5-(hydroxymethyl)-1,2,4,4a,5,6-hexahydro-[1,4]oxazino[4,3-a][1,5]naphthyridin-9-yl)-4-methylphenyl)iso-nicotinamide] | 0.1 nM
16 | CC[C@H]1Oc2nnc(-c3cc(NC(=O)c4ccnc(C(C)(F)F)c4)ccc3C)cc2N2CCOC[C@H]12 [Example 533, 2-(1,1-difluoroethyl)-N-(3-((6R,6aR)-6-ethyl-6a,7,9,10-tetrahydro-6H-[1,4]oxazino[4,3-d]pyridazino[3,4-b][1,4]oxazin-2-yl)-4-methylphenyl)isonicotinamide] | 0.1 nM
17 | Cc1ccc(NC(=O)c2ccnc(C(F)(F)F)c2)cc1-c1ccc2c(c1)N1CCOCC1C(CO)C2 (racemic) [Example 59, (rac)-N-(3-(5-(hydroxymethyl)-1,2,4,4a,5,6-hexahydro-[1,4]oxazino[4,3-a]quinolin-9-yl)-4-methylphenyl)-2-(trifluoromethyl)isonicotinamide] | 0.0089 nM
18 | Cc1ccc(NC(=O)c2ccnc(C(F)(F)F)c2F)cc1-c1cnc2c(c1)N1CCOC[C@H]1CC(=O)N2CCO [Example 322, (R)-3-fluoro-N-(3-(7-(2-hydroxyethyl)-6-oxo-2,4,4a,5,6,7-hexahydro-1H-[1,4]oxazino[4,3-d]pyrido[2,3-b][1,4]diazepin-10-yl)-4-methylphenyl)-2-(trifluoromethyl) isonicotinamide] | 0.3 nM
19 | Cc1ccc(NC(=O)c2ccnc(C(C)(F)F)c2)cc1-c1ccc2c(c1)N1CCOCC1C(F)(CO)C2 (single isomer, unassigned) [Example 82, 2-(1,1-difluoroethyl)-N-(3-(5-fluoro-5-(hydroxymethyl)-1,2,4,4a,5,6-hexahydro-[1,4]oxazino[4,3-a]quinolin-9-yl)-4-methylphenyl)isonicotinamide] | 0.17 nM
20 | CCN1C(=O)C2(F)COCC[C@@H]2c2cc(-c3cc(NC(=O)c4ccnc(C(C)(F)F)c4)ccc3C)cnc21 (stereo partly drawn) [Example 338, 2-(1,1-difluoroethyl)-N-(3-((10bR)-6-ethyl-4a-fluoro-5-oxo-2,4,4a,5,6,10b-hexahydro-1H-pyrano[3,4-c][1,8]naphthyridin-9-yl)-4-methylphenyl)isonicotinamide] | 0.5 nM
21 | Cc1ccc(NC(=O)c2ccnc(C(C)(C)F)c2)cc1-c1ccc2c(c1)N1CCOCC1CC2O (racemic) [Example 7, (rac)-2-(2-fluoropropan-2-yl)-N-(3-(6-hydroxy-1,2,4,4a,5,6-hexahydro-[1,4]oxazino[4,3-a]quinolin-9-yl)-4-methylphenyl)isonicotinamide] | 0.033 nM
22 | Cc1ccc(NC(=O)c2ccnc(C(C)(C)F)c2)cc1-c1cc2n(c(=O)c1)CC[C@H]1CCOCCN21 [Example 417, (S)-2-(2-fluoropropan-2-yl)-N-(4-methyl-3-(9-oxo-1,2,5,5a,6,7-hexahydro-4H,9H-pyrido[2′,1′:2,3]pyrimido[1,6-d][1,4]oxazepin-11-yl)phenyl)isonicotinamide] | 0.5 nM
23 | Cc1ccc(NC(=O)c2ccnc(C(F)(F)F)c2F)cc1-c1cnc2c(c1)N1CCOC[C@H]1CC(=O)N2CC(C)(C)O [Example 290, (R)-3-fluoro-N-(3-(7-(2-hydroxy-2-methylpropyl)-6-oxo-2,4,4a,5,6,7-hexahydro-1H-[1,4]oxazino[4,3-d]pyrido[2,3-b][1,4]diazepin-10-yl)-4-methylphenyl)-2-(trifluoromethyl) isonicotinamide] | 1 nM
24 | Cc1ccc(NC(=O)c2ccnc(C(C)(F)F)c2)cc1-c1cnc2c(c1)[C@@H]1CCOC[C@H]1C(=O)N2CC(F)F [Example 265, 2-(1,1-difluoroethyl)-N-(3-((4aS, 10bR)-6-(2,2-difluoroethyl)-5-oxo-2,4,4a,5,6,10b-hexahydro-1H-pyrano[3,4-c][1,8]naphthyridin-9-yl)4-methylphenyl) isonicotinamide] | 0.1 nM
25 | CCN1C[C@@H]2COCC[C@H]2c2cc(-c3cc(NC(=O)c4ccnc(C(F)(F)F)c4)ccc3C)cnc21 [Example 291, N-(3-((4aR, 10bR)-6-ethyl-2,4,4a,5,6,10b-hexahydro-1H-pyrano[3,4-c][1,8]naphthyridin-9-yl)-4-methylpheny)-2-(trifluoromethyl) isonicotinamide] | 0.1 nM
26 | Cc1ccc(NC(=O)c2ccnc(C(C)(F)F)c2)cc1-c1ccc2c(c1)N1CCOC[C@H]1[C@](CO)(CF)C2 [Example 410, 2-(1,1-difluoroethyl)-N-(3-((4aR,5R)-5-(fluoromethyl)-5-(hydroxymethyl)-1,2,4,4a,5,6-hexahydro-[1,4]oxazino[4,3-a]quinolin-9-yl)-4-methylphenyl)isonicotinamide] | 0.5 nM
27 | (R)-2-(1,1- difluoroethyl)-3- fluoro-N-(3-(7-(2- hydroxyethyl)-6- oxo-2,4,4a,5,6,7- hexahydro-1H- [1,4]oxazino[4,3- d]pyrido[2,3- b][1,4]diazepin-10- yl)-4- methylphenyl) isonicotinamide [Example 308] | 0.7 nM
